In assay [1] the test system is the other serotypes (salmonella). Nature of the assay: Example 3: esterase substrate preference, conclusion from table 4. Type of assay: cell-based. The conditions noted are these: coloration intensities being stronger for this substrate. As for the experimental part:
(§1) The media thus constituted were distributed into Petri dishes.
(§2) Various salmonella serotypes were inoculated, using a 10 μl calibrated loop, onto each medium, using calibrated suspensions of 0.5 McFarland. All the cultures were incubated for 24 h at 37° C.
(§3) The growth and coloration results obtained at 24 h of incubation are given in table 3, in which G signifies growth, C signifies color, I signifies colorless, In signifies coloration intensity, the sign ++ signifies very good growth, the sign + signifies good growth of the strain, the sign +/− signifies moderate growth of the strain and the sign − signifies lack of growth of the strain. 1 corresponds to a weak coloration intensity, 2 corresponds to moderate and 3 corresponds to strong.
As a result of this, a medium containing these two substrates of the same enzymatic activity makes it possible to obtain colored colonies for the various salmonella serotypes, and to separate the Dublin serotype from the other salmonella serotypes and from bacteria not expressing esterase.

The test system of assay [2] is S. enteritidis serotype Dublin. In words: Example 3: colony color, coloration intensity and growth on Columbia agar with esterase substrates. Type of assay: cell-based. The conditions noted are these: X—C8 versus Magenta-C8. As for the experimental part:
as §1, §2, §3

Here are results for two compounds from patent US8420345B2, “Method for identifying at least two groups of microorganisms” (Biomerieux, priority 2006, dated 2013).

With `CCCCCCCC(=O)Oc1c[nH]c2cc(Cl)c(Br)cc12` [Magenta-C8, 5-Bromo-6-Chloro-3-Indoxyl Octanoate], in assay [1], the “preferential hydrolysis by esterase activity” value is reported as “preferentially hydrolyze Magenta-C8”. Take `CCCCCCCC(=O)Oc1c[nH]c2ccc(Br)c(Cl)c12` [X—C8, 5-Bromo-4-Chloro-3-Indoxyl Octanoate]: in assay [2], the “specificity of hydrolysis by esterase activity” value is reported as “hydrolyzes X—C8 more specifically than Magenta-C8”.
